Results reported in patent US20240270821A1, “GIP/GLP1/GCG TRI-RECEPTOR AGONISTS AND USES THEREOF” (priority 2023, published 2024).
Read-outs that look alike come from different tables or passages of the source.

What was measured:
Assay type in all cases: cell-based
hGIPR [1] = biological target: T1, hGIPR (Homo sapiens, UniProt P48546); assay: Functional cAMP activity in the presence of 1% HSA; conditions: read-out: cAMP Rel EC50, hGIPR
T1 sequence (P48546 22-466): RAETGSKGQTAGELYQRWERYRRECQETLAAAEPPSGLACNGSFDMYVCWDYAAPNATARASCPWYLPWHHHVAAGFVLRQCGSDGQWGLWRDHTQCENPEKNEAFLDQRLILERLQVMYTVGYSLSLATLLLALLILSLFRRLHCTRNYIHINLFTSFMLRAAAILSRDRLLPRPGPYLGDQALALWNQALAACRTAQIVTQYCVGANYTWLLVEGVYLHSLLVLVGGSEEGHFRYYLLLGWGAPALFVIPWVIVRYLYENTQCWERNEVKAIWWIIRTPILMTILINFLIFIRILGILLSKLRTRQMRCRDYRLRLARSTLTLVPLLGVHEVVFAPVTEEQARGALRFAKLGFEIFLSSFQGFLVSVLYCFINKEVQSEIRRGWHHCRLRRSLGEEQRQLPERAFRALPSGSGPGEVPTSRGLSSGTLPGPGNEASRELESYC

hGLP-1R [2] = biological target: T2, hGLP-1R (Homo sapiens, UniProt P43220); assay: Functional cAMP activity in the presence of 1% HSA; conditions: read-out: cAMP Rel EC50, hGLP-1R
T2 sequence (P43220 24-463): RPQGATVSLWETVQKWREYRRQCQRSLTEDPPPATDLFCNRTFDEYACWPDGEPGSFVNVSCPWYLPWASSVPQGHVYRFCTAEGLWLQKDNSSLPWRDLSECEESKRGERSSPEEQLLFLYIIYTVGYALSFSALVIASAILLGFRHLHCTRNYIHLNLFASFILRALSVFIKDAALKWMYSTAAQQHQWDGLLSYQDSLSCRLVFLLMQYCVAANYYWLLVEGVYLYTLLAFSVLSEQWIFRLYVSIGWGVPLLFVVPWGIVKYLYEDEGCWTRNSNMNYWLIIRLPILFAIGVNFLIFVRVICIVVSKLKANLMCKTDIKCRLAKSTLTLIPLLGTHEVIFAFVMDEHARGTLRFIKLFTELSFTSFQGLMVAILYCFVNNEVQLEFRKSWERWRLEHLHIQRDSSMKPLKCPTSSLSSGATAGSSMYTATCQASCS

human GcgR = human GcgR (Homo sapiens, UniProt P47871); assay: Functional cAMP activity in the presence of 1% HSA; conditions: read-out: cAMP Rel EC50, hGcgR
Chain of human GcgR (P47871 26-477): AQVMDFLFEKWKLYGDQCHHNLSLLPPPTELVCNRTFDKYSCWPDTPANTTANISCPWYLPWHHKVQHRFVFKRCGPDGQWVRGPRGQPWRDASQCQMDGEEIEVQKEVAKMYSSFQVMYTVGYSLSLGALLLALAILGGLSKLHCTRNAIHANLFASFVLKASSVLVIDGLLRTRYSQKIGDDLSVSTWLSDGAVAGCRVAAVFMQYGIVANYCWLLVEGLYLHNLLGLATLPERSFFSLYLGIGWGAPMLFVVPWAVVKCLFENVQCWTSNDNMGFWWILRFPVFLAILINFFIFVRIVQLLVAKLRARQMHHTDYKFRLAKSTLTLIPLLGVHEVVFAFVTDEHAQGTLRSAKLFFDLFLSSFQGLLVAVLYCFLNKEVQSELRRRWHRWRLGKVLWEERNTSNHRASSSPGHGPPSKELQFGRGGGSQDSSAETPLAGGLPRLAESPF

hGIPR [3] = biological target: T1, hGIPR; assay: Functional cAMP activation in the presence of 0.1% casein (no HSA); conditions: geometric mean, read-out: Relative cAMP EC50, hGIPR;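 for Relative cAMP EC50, hGIPR: intracellular cAMP rise after 30 min at 37 °C read by HTRF against a standard curve, scaled between buffer alone (0%) and top control ligand concentration (100%), four-parameter fit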;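 for Relative cAMP EC50, hGLP-1R: intracellular cAMP rise after 30 min at 37 °C read by HTRF, normalized between buffer only (0%) and maximal control ligand (100%), four-parameter variable-slope fit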;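 for Relative cAMP EC50, hGcgR: intracellular cAMP rise after 30 min at 37 °C, read by HTRF against a cAMP standard curve, scaled from buffer only (0%) to maximal control ligand response (100%)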
hGLP-1R [4] = biological target: T2, hGLP-1R; assay: as above; conditions: geometric mean, read-out: Relative cAMP EC50, hGLP-1R
hGcgR = hGcgR (Homo sapiens, UniProt P47871); assay: as above; conditions: geometric mean, read-out: Relative cAMP EC50, hGcgR;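 note: intracellular cAMP rise after 30 min at 37 °C, read by HTRF against a cAMP standard curve, scaled from buffer only (0%) to maximal control ligand response (100%)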
Chain of hGcgR (P47871 26-477): as above

[5] = in the presence of 0.1% casein (no HSA)

`CC[C@H](C)[C@H](NC(=O)[C@H](Cc1ccccc1)NC(=O)[C@H](C)NC(=O)[C@](C)(Cc1ccncc1)NC(=O)[C@H](CCC(N)=O)NC(=O)[C@H](C)NC(=O)[C@H](CCCCNC(=O)CC[C@H](NC(=O)CC[C@H](NC(=O)CCCCCCCCCCCCCCCCC(=O)O)C(=O)O)C(=O)O)NC(=O)[C@H](CCCN)NC(=O)[C@H](CC(=O)O)NC(=O)[C@H](CC(C)C)NC(=O)[C@](C)(CC(C)C)NC(=O)[C@H](CCC(N)=O)NC(=O)[C@H](CO)NC(=O)[C@H](Cc1ccncc1)NC(=O)[C@H](CC(=O)O)NC(=O)[C@H](CO)NC(=O)[C@@H](NC(=O)[C@H](Cc1ccccc1)NC(=O)[C@@H](NC(=O)CNC(=O)[C@H](CCC(N)=O)NC(=O)C(C)(C)NC(=O)[C@@H](N)Cc1ccc(O)cc1)[C@@H](C)O)[C@@H](C)O)C(=O)N[C@@H](CCC(=O)O)C(=O)N[C@@H](Cc1ccc(O)cc1)C(=O)N[C@@H](CC(C)C)C(=O)N[C@H](C(=O)N[C@@H](CCC(=O)O)C(=O)N[C@H](C)C(=O)NCC(=O)N1CCC[C@H]1C(=O)N[C@@H](CO)C(=O)N[C@@H](CO)C(=O)NCC(=O)N[C@@H](C)C(=O)N1CCC[C@H]1C(=O)N1CCC[C@H]1C(=O)N1CCC[C@H]1C(=O)N[C@@H](CO)C(=O)NCC(=O)N[C@@H](CO)C(=O)N[C@@H](CCC(=O)O)C(N)=O)[C@@H](C)CC` [Example 1023] showed an EC50 (hGIPR [1]) of 26 nM, an EC50 (hGLP-1R [2]) of 230 nM and an EC50 (human GcgR) of 856 nM. For the same compound, the EC50 (hGIPR [3]; [5]) was 0.235 nM, the EC50 (hGLP-1R [4]; [5]) was 1.47 nM and the EC50 (hGcgR; [5]) was 3.82 nM.
With `CC[C@H](C)[C@H](NC(=O)[C@H](Cc1ccccc1)NC(=O)[C@H](C)NC(=O)[C@](C)(Cc1ccncc1)NC(=O)[C@H](CCC(N)=O)NC(=O)[C@H](C)NC(=O)[C@H](CCCCNC(=O)COCCOCCNC(=O)CC[C@H](NC(=O)CC[C@H](NC(=O)CCCCCCCCCCCCCCCCC(=O)O)C(=O)O)C(=O)O)NC(=O)[C@H](CCCCN)NC(=O)[C@H](CC(=O)O)NC(=O)[C@H](CC(C)C)NC(=O)[C@](C)(CC(C)C)NC(=O)[C@H](CCC(N)=O)NC(=O)[C@H](CO)NC(=O)[C@H](Cc1ccncc1)NC(=O)[C@H](CC(=O)O)NC(=O)[C@H](CO)NC(=O)[C@@H](NC(=O)[C@H](Cc1ccccc1)NC(=O)[C@@H](NC(=O)CNC(=O)[C@H](CCC(N)=O)NC(=O)C(C)(C)NC(=O)[C@@H](N)Cc1ccc(O)cc1)[C@@H](C)O)[C@@H](C)O)C(=O)N[C@@H](CCC(=O)O)C(=O)N[C@@H](Cc1ccc(O)cc1)C(=O)N[C@@H](CC(C)C)C(=O)N[C@H](C(=O)N[C@@H](CCC(=O)O)C(=O)N[C@H](C)C(=O)NCC(=O)N1CCC[C@H]1C(=O)N[C@@H](CO)C(=O)N[C@@H](CO)C(=O)NCC(=O)N[C@@H](C)C(=O)N1CCC[C@H]1C(=O)N1CCC[C@H]1C(=O)N1CCC[C@H]1C(=O)N[C@@H](CO)C(=O)NCC(=O)N[C@@H](CO)C(=O)N[C@@H](CCC(=O)O)C(N)=O)[C@@H](C)CC` [Example 1024] the EC50 (hGIPR [1]) was 32.5 nM, the EC50 (hGLP-1R [2]) was 330 nM and the EC50 (human GcgR) was 760 nM. It also gave an EC50 (hGIPR [3]; [5]) of 0.441 nM, an EC50 (hGLP-1R [4]; [5]) of 4.79 nM and an EC50 (hGcgR; [5]) of 10.6 nM.
For `CC[C@H](C)[C@H](NC(=O)[C@H](Cc1ccccc1)NC(=O)[C@H](C)NC(=O)[C@](C)(Cc1ccncc1)NC(=O)[C@H](CCC(N)=O)NC(=O)[C@H](C)NC(=O)[C@H](CCCCNC(=O)CC[C@H](NC(=O)CC[C@H](NC(=O)CCCCCCCCCCCCCCCCC(=O)O)C(=O)O)C(=O)O)NC(=O)[C@H](CCCCN)NC(=O)[C@H](CC(=O)O)NC(=O)[C@H](CC(C)C)NC(=O)[C@](C)(CC(C)C)NC(=O)[C@H](CCC(N)=O)NC(=O)[C@H](CO)NC(=O)[C@H](Cc1ccncc1)NC(=O)[C@H](CC(=O)O)NC(=O)[C@H](CO)NC(=O)[C@@H](NC(=O)[C@H](Cc1ccccc1)NC(=O)[C@@H](NC(=O)CNC(=O)[C@H](CCC(N)=O)NC(=O)C(C)(C)NC(=O)[C@@H](N)Cc1ccc(O)cc1)[C@@H](C)O)[C@@H](C)O)C(=O)N[C@@H](CCC(=O)O)C(=O)N[C@@H](Cc1ccc(O)cc1)C(=O)N[C@@H](CC(C)C)C(=O)N[C@H](C(=O)N[C@@H](CCC(=O)O)C(=O)N[C@H](C)C(=O)NCC(=O)N1CCC[C@H]1C(=O)N[C@@H](CO)C(=O)N[C@@H](CO)C(=O)NCC(=O)N[C@@H](C)C(=O)N1CCC[C@H]1C(=O)N1CCC[C@H]1C(=O)N1CCC[C@H]1C(=O)N[C@@H](CO)C(=O)NCC(=O)N[C@@H](CO)C(=O)N[C@@H](CCC(=O)O)C(N)=O)[C@@H](C)CC` [Example 1025], the EC50 (hGIPR [1]) was 31.5 nM, the EC50 (hGLP-1R [2]) was 352 nM and the EC50 (human GcgR) was 625 nM. It also gave an EC50 (hGIPR [3]; [5]) of 0.18 nM, an EC50 (hGLP-1R [4]; [5]) of 2.45 nM and an EC50 (hGcgR; [5]) of 3.22 nM.
`CC[C@H](C)[C@H](NC(=O)[C@H](CC(C)C)NC(=O)[C@](C)(Cc1ccc(O)cc1)NC(=O)[C@H](CCC(=O)O)NC(=O)[C@@H](NC(=O)[C@H](Cc1ccccc1)NC(=O)[C@H](CCC(N)=O)NC(=O)[C@](C)(Cc1ccncc1)NC(=O)[C@H](CCC(N)=O)NC(=O)[C@H](C)NC(=O)[C@H](CCCCNC(=O)COCCOCCNC(=O)CC[C@H](NC(=O)CCCCCCCCCCCCCCCCC(=O)O)C(=O)O)NC(=O)[C@H](CCCN)NC(=O)[C@H](CC(=O)O)NC(=O)[C@H](CC(C)C)NC(=O)[C@](C)(CC(C)C)NC(=O)[C@H](CCC(N)=O)NC(=O)[C@H](CO)NC(=O)[C@H](Cc1ccncc1)NC(=O)[C@H](CC(=O)O)NC(=O)[C@H](CO)NC(=O)[C@@H](NC(=O)[C@H](Cc1ccccc1)NC(=O)[C@@H](NC(=O)CNC(=O)[C@H](CCC(N)=O)NC(=O)C(C)(C)NC(=O)[C@@H](N)Cc1ccc(O)cc1)[C@@H](C)O)[C@@H](C)O)[C@@H](C)CC)C(=O)N[C@@H](CCC(=O)O)C(=O)NC(C)(C)C(=O)NCC(=O)N1CCC[C@H]1C(=O)N[C@@H](CO)C(=O)N[C@@H](CO)C(=O)NCC(=O)N[C@@H](C)C(=O)N1CCC[C@H]1C(=O)N1CCC[C@H]1C(=O)N1CCC[C@H]1C(=O)N[C@@H](CO)C(=O)NCC(=O)N[C@@H](CO)C(=O)N[C@@H](CCC(=O)O)C(=O)N[C@@H](CCC(=O)O)C(N)=O` [Example 1109] showed an EC50 (hGIPR [1]) of 20.2 nM, an EC50 (hGLP-1R [2]) of 102 nM and an EC50 (human GcgR) of 510 nM. For the same compound, the EC50 (hGIPR [3]; [5]) was 0.0626 nM, the EC50 (hGLP-1R [4]; [5]) was 2.3 nM and the EC50 (hGcgR; [5]) was 10.8 nM.
For `CC[C@H](C)[C@H](NC(=O)[C@H](CC(C)C)NC(=O)[C@](C)(Cc1ccc(O)cc1)NC(=O)[C@H](CCC(=O)O)NC(=O)[C@@H](NC(=O)[C@H](Cc1ccccc1)NC(=O)[C@H](CCC(N)=O)NC(=O)[C@](C)(Cc1ccncc1)NC(=O)[C@H](CCC(N)=O)NC(=O)[C@H](C)NC(=O)[C@H](CCCCNC(=O)COCCOCCNC(=O)CC[C@H](NC(=O)CCCCCCCCCCCCCCCCC(=O)O)C(=O)O)NC(=O)[C@H](CCCN)NC(=O)[C@H](CC(=O)O)NC(=O)[C@H](CC(C)C)NC(=O)[C@](C)(CC(C)C)NC(=O)[C@H](CCC(N)=O)NC(=O)[C@H](CO)NC(=O)[C@H](Cc1ccncc1)NC(=O)[C@H](CC(=O)O)NC(=O)[C@H](CO)NC(=O)[C@@H](NC(=O)[C@H](Cc1ccccc1)NC(=O)[C@@H](NC(=O)CNC(=O)[C@H](CCC(N)=O)NC(=O)C(C)(C)NC(=O)[C@@H](N)Cc1ccc(O)cc1)[C@@H](C)O)[C@@H](C)O)[C@@H](C)CC)C(=O)N[C@@H](C)C(=O)NC(C)(C)C(=O)NCC(=O)N1CCC[C@H]1C(=O)N[C@@H](CO)C(=O)N[C@@H](CO)C(=O)NCC(=O)N[C@@H](C)C(=O)N1CCC[C@H]1C(=O)N1CCC[C@H]1C(=O)N1CCC[C@H]1C(=O)N[C@@H](CO)C(=O)NCC(=O)N[C@@H](CO)C(=O)N[C@@H](CCC(=O)O)C(=O)N[C@@H](CCC(=O)O)C(N)=O` [Example 1111], the EC50 (hGIPR [1]) was 3.66 nM, the EC50 (hGLP-1R [2]) was 51.3 nM and the EC50 (human GcgR) was 299 nM. It also gave an EC50 (hGIPR [3]; [5]) of 0.0356 nM, an EC50 (hGLP-1R [4]; [5]) of 1.14 nM and an EC50 (hGcgR; [5]) of 5.28 nM.
With `CC[C@H](C)[C@H](NC(=O)[C@H](CC(C)C)NC(=O)[C@](C)(Cc1ccc(O)cc1)NC(=O)[C@@H](CCC(=O)O)NC(=O)[C@@H](NC(=O)[C@H](Cc1ccccc1)NC(=O)[C@H](CCC(=O)O)NC(=O)[C@](C)(Cc1ccncc1)NC(=O)[C@H](CCC(N)=O)NC(=O)[C@H](C)NC(=O)[C@H](CCCCNC(=O)COCCOCCNC(=O)COCCOCCNC(=O)CC[C@H](NC(=O)CCCCCCCCCCCCCCCCC(=O)O)C(=O)O)NC(=O)[C@H](CCCN)NC(=O)[C@H](CC(=O)O)NC(=O)[C@H](CC(C)C)NC(=O)[C@](C)(CC(C)C)NC(=O)[C@@H](NC(=O)[C@](C)(CO)NC(=O)[C@H](Cc1ccncc1)NC(=O)[C@H](CC(=O)O)NC(=O)[C@H](CO)NC(=O)[C@@H](NC(=O)[C@](C)(Cc1ccccc1F)NC(=O)[C@@H](NC(=O)CNC(=O)[C@H](CCC(N)=O)NC(=O)C(C)(C)NC(=O)[C@@H](N)Cc1ccc(O)cc1)[C@@H](C)O)[C@@H](C)O)[C@@H](C)CC)[C@@H](C)CC)C(=O)N[C@@H](CCC(=O)O)C(=O)NCC(=O)NCC(=O)N1CCC[C@H]1C(=O)N[C@@H](CO)C(=O)N[C@@H](CO)C(=O)NCC(=O)N[C@@H](C)C(=O)N1CCC[C@H]1C(=O)N1CCC[C@H]1C(=O)N1CCC[C@H]1C(=O)N[C@@H](CO)C(=O)NCC(=O)N[C@@H](CO)C(N)=O` [Example 1207] the EC50 (hGIPR [1]) was 0.633 nM, the EC50 (hGLP-1R [2]) was 39.8 nM and the EC50 (human GcgR) was 470 nM. The EC50 (hGIPR [3]; 0.1% casein, no HSA) was 0.00647 nM, the EC50 (hGLP-1R [4]; 0.1% casein, no HSA) was 0.299 nM and the EC50 (hGcgR; 0.1% casein, no HSA) was 7.71 nM.
